Several values for one entry are separate records, joined by “and”; a condition that tells them apart may be missing. Equal values may be shown once. Read-outs that look alike come from different tables or passages of the source.
Experiments:
[1] = Biodistribution of DHA after periorbital skin (NIODP) application to one eye; assay type: in vivo, Cynomolgus monkeys; details: undosed/dosed retina, 6755.1 μg to OS via NIODP
Description: An experiment was performed to determine the biodisposition of DHA following topical application to the periorbital skin that surrounds the anterior portion of the globe was performed.
Docosahexaenoic acid (DHA) is an omega-3 fatty acid and an essential component for neuronal formation, function and protection. […] […] High concentrations of DHA (from 35.6 to 97.3 μg/g) were detected in the undoes retina, which is similar to the dosed retina.
Moreover, compared to the baseline retina/plasma ratio of 7-fold, and with no significant changes in plasma, the retina/plasma ratios of DHA in the undosed eye were at least 30-fold at each post dose timepoint, signifying that the undosed retina uptake of DHA was not from blood circulation.

[2] = Baseline endogenous levels of DHA in monkeys; assay type: in vivo; details: no NIODP dosing
Description: The endogenous levels DHA is originated from normal diet and not attributable to NIODP administration.

[3] = Baseline endogenous levels of DHA, DHA-EE and JV-DE1; assay type: in vivo; details: undosed Bama minipigs
Description: Endogenous levels were measured in the plasma, cerebrospinal fluid, ocular tissues (retina, optic nerve, ocular muscles), and brain. The endogenous levels DHA are not attributable to NIODP administration of DHA, DHA-EE, or JV-DE1. The baseline data collected in Table 4 was taken from the same lot of pigs, from the same vendor, as the information collected in Tables 5-7.

[4] = DHA distribution after single periorbital skin administration; assay type: in vivo, Bama minipigs; details: for concentration at 3 h: Bama, minipig, topical, 6092 μg/eye
Description: In this example, 6092 μg/eye of DHA was applied to the periorbital skin of a left eye of a Bama minipig. […] 27133.8 ng/g of tissue and 24795.8 ng/g of tissue of DHA was measured in the left and right halves of the brain, respectively. Taking the average of these two numbers, the amount of DHA present in the brain 3 hours post-dosage was 25964.9 ng/g.
Given that the average Bama pig brain weighs around 60 g, the amount of DHA delivered to the brain can be estimated to be 312,408 ng or 312 μg. Therefore, the percentage of administered dose=312 μg delivered to brain/6092 μg dosed=5.1% of DHA topically administered to the pig via periorbital administration was delivered to the brain. As a comparison, only about 0.025% of DHA that is orally administered is delivered to the brain or CNS.

[5] = oral administration; comparison value; cited from earlier work
[6] = 3 h, DHA 6092 μg to periorbital skin of left eye

Structure (SMILES): CC/C=C\C/C=C\C/C=C\C/C=C\C/C=C\C/C=C\CCC(=O)O [DHA, docosahexaenoic acid]
- OD/OS retina ratio of DHA ([1]; 6 h): 99%
- OD/OS retina ratio of DHA ([1]; 24 h): 75%
- Calculated Concentration, endogenous DHA in cornea ([2]; double blank samples): BLQ
- Calculated Concentration, endogenous DHA in plasma ([2]; double blank samples): 0.5 µg/mL and 0.6 µg/mL
- Calculated Concentration, endogenous DHA in retina ([2]; double blank samples): 16 µg/g and 17 µg/g
- Calculated Concentration, endogenous DHA in upper eyelid ([2]; double blank samples): BLQ
- Calculated Concentration, endogenous DHA in vitreous humor ([2]; double blank samples): BLQ
- Endogenous levels of DHA in monkey ocular tissues ([2]; LLOQ=0.5 μg/mL): mostly below the lower limit of quantification (LLOQ=0.5 μg/mL) or negligible
- Baseline endogenous concentration in brain [3]: 20758 ng/g
- Baseline endogenous concentration in cerebrospinal fluid [3]: BLQ
- Baseline endogenous concentration in eye tissue homogenate including (Retina, optic nerve, ocular muscle) [3]: 2643.5 ng/g
- Baseline endogenous concentration in plasma [3]: 122.1 ng/mL
- Drug Concentration in Plasma ([4]; 0 h, DHA 6092 μg to periorbital skin of left eye): BLQ
- Drug Concentration in Plasma ([4]; 1 h, DHA 6092 μg to periorbital skin of left eye): BLQ
- Percentage of administered dose delivered to the brain ([4]; 3 h, DHA 6092 μg periorbital, whole brain estimate): 5.1%
- % of administered dose: Cerebrospinal fluid [4, 6]: 0%
- % of administered dose: brain-left [4, 6]: 6%
- % of administered dose: brain-right [4, 6]: 4%
- % of administered dose: inferior rectus muscle-left [4, 6]: 0.004%
- % of administered dose: inferior rectus muscle-right [4, 6]: 0.01%
- % of administered dose: lateral rectus muscle-left [4, 6]: 0.02%
- % of administered dose: lateral rectus muscle-right [4, 6]: 0.03%
- % of administered dose: medial rectus muscle-left [4, 6]: 0.01%
- % of administered dose: medial rectus muscle-right [4, 6]: 0.01%
- % of administered dose: optic nerve-left [4, 6]: 0.03%
- % of administered dose: optic nerve-right [4, 6]: 0.05%
- % of administered dose: retina-left [4, 6]: 0.2%
- % of administered dose: retina-right [4, 6]: 0.1%
- % of administered dose: superior rectus muscle-left [4, 6]: 0.01%
- % of administered dose: superior rectus muscle-right [4, 6]: 0%
- Drug Concentration in Plasma [4, 6]: BLQ
- concentration at 3 h ([4]; brain (average of left and right halves), 3 h, DHA 6092 μg to periorbital skin of left eye, read-out: Average DHA present in the brain (left and right halves)): 26000 ng/g
- concentration at 3 h ([4]; brain, left half, 3 h, DHA 6092 μg to periorbital skin of left eye, read-out: Drug Concentration in Tissue: brain-left): 27100 ng/g
- concentration at 3 h ([4]; brain, right half, 3 h, DHA 6092 μg to periorbital skin of left eye, read-out: Drug Concentration in Tissue: brain-right): 24800 ng/g
- concentration at 3 h ([4]; cerebrospinal fluid, 3 h, DHA 6092 μg to periorbital skin of left eye, read-out: Drug Concentration in Tissue: Cerebrospinal fluid): 0 ng/g
- concentration at 3 h ([4]; inferior rectus muscle, left (dosed side), 3 h, DHA 6092 μg to periorbital skin of left eye, read-out: Drug Concentration in Tissue: inferior rectus muscle-left): 2750 ng/g
- concentration at 3 h ([4]; inferior rectus muscle, right (undosed side), 3 h, DHA 6092 μg to periorbital skin of left eye, read-out: Drug Concentration in Tissue: inferior rectus muscle-right): 2340 ng/g
- concentration at 3 h ([4]; lateral rectus muscle, right, 3 h, DHA 6092 μg to periorbital skin of left eye, read-out: Drug Concentration in Tissue: lateral rectus muscle-right): 1980 ng/g
- concentration at 3 h ([4]; lateral rectus muscle, 3 h, DHA 6092 μg to periorbital skin of left eye, read-out: Drug Concentration in Tissue: lateral rectus muscle-left): 8100 ng/g
- concentration at 3 h ([4]; medial rectus muscle, left (dosed side), 3 h, DHA 6092 μg to periorbital skin of left eye, read-out: Drug Concentration in Tissue: medial rectus muscle-left): 2720 ng/g
- concentration at 3 h ([4]; medial rectus muscle, right, 3 h, DHA 6092 μg to periorbital skin of left eye, read-out: Drug Concentration in Tissue: medial rectus muscle-right): 1520 ng/g
- concentration at 3 h ([4]; optic nerve, left (dosed side), 3 h, DHA 6092 μg to periorbital skin of left eye, read-out: Drug Concentration in Tissue: optic nerve-left): 10400 ng/g
- concentration at 3 h ([4]; optic nerve, right (undosed side), 3 h, DHA 6092 μg to periorbital skin of left eye, read-out: Drug Concentration in Tissue: optic nerve-right): 15300 ng/g
- concentration at 3 h ([4]; retina, left (dosed side), 3 h, DHA 6092 μg to periorbital skin of left eye, read-out: Drug Concentration in Tissue: retina-left): 61700 ng/g
- concentration at 3 h ([4]; retina, right (undosed side), 3 h, DHA 6092 μg to periorbital skin of left eye, read-out: Drug Concentration in Tissue: retina-right): 42100 ng/g
- concentration at 3 h ([4]; superior rectus muscle, right, 3 h, DHA 6092 μg to periorbital skin of left eye, read-out: Drug Concentration in Tissue: superior rectus muscle-right): 0 ng/g
- concentration at 3 h ([4]; superior rectus muscle, 3 h, DHA 6092 μg to periorbital skin of left eye, read-out: Drug Concentration in Tissue: superior rectus muscle-left): 3050 ng/g
- Share of orally administered DHA delivered to the brain or CNS [5]: about 0.025%

Reference: patent US20240350447A1, “DELIVERY METHODS FOR TREATING BRAIN AND CENTRAL NERVOUS SYSTEM DISEASES” (JENIVISION INC., priority 2021, published 2024)
